The values below come from patent publication US7592143B2, “Methods of treating diseases responsive to induction of apoptosis and screening assays” (Cytovia, Inc., priority 2003, dated 2009).

The target in one assay is Transferrin Receptors (Homo sapiens, UniProt P02786). Put plainly: Transferrin receptor binding assay of small molecules: inhibition of biotin-GA binding. Particulars: 0.75 h; Compounds tested at 20 μM; biotin-GA kept at 1 μM. The procedure: The assay was run similar as described in Example 38. Wells of a 96-well assay plate were coated with 500 ng of HTR in 100 μl of PBS per well overnight at 4° C. These were washed twice with 200 μl of PBS and incubated with 200 μl of 1% BSA solution in PBS and washed twice with 200 μl of PBS. 100 μl of 1 μM biotin-GA solution in binding buffer (PBS/0.1% BSA/0.1% Tween-20) was added per well and incubated for 45 minutes at room temperature. For competition of binding assays biotin-GA was pre-mixed with indicated compounds at various concentrations. Final concentration of DMSO in binding mixtures was adjusted to 1% v/v. Wells were washed 4 times with 200 μl of binding buffer. 100 μl of 100 ng/ml Eu-labeled streptavidin solution in binding buffer were added per well and incubated for 45 minutes at room temperature. Wells were washed twice with 200 μl of binding buffer and twice with 200 μl of PBS. 100 μl of DELFIA Enhancement Solution were added per well and incubated for 10 minutes at room temperature. Plates were read on a Wallac Victor plate reader (Wallac-PerkinElmer Life Sciences) using delayed fluorescence Eu protocol at default manufacturer's settings.
Coated wells with no competing agent added were used to determine total binding (T). Non-coated wells were used to determine background binding (B). Background binding was consistently lower than 20%. Inhibition of binding was calculated as I=(T−BC)/(T−B)*100%, where BC was a reading corresponding to a well with a competing compound C added.
Other controls included assays of Biotin-GA binding to the wells coated with 500 μg/well of BSA or mouse Immunoglobulin G, the secondary reagent (Eu-labeled streptavidin) alone binding to the wells coated with […].

Another assay relates to T-47D. Put plainly: Caspase cascade activation and induction of apoptosis in solid tumor cells. Type of assay: cell-based, Human. Particulars: 48 h incubation; for Caspase potency EC50 (nM) / EC50: 0.016 to 10 μM; for Caspase activity (Ratio): ratio of net RFU of test compound to control; for EC50: Homo sapiens, T47D, read-out: Caspase potency EC50. On the procedure: Human breast cancer cell lines T-47D and DLD-1 were grown according to media component mixtures designated by American Type Culture Collection +10% FCS (Invitrogen Corporation), in a 5% CO2-95% humidity incubator at 37° C. T-47D and DLD-1 cells were maintained at a cell density between 50 and 80% confluency at a cell density of 0.1 to 0.6×10^6 cells/mL. Cells were harvested at 600×g and resuspended at 0.65×10^6 cells/mL into appropriate media +10% FCS. An aliquot of 22.5 μL of cells was added to a well of a 384-well microtiter plate containing 2.5 μL of a 10% DMSO in RPMI-1640 media solution containing 0.16 to 100 μM of test compound (0.016 to 10 μM final). An aliquot of 22.5 μL of cells was added to a well of a 384-well microtiter plate containing 2.5 μL of a 10% DMSO in RPMI-1640 media solution without test compound as the control sample. The samples were mixed by agitation and then incubated at 37° C. for 48 h in a 5% CO2-95% humidity incubator. After incubation, the samples were removed from the incubator and 25 μL of a solution containing 14 μM of N-(Ac-DEVD)-N′-ethoxycarbonyl-R110 (SEQ ID NO.: 41) fluorogenic substrate (Cytovia, Inc.; WO99/18856), 20% sucrose (Sigma), 20 mM DTT (Sigma), 200 mM NaCl (Sigma), 40 mM Na PIPES buffer pH 7.2 (Sigma), and 500 μg/mL lysolecithin (Calbiochem) was added. The samples were mixed by agitation and incubated at room temperature. Using a fluorescent plate reader (Model SPECTRAfluor Plus, Tecan), an initial reading (T=0) was made approximately 1-2 min after addition of the substrate solution, employing excitation at 485 nm and emission at 530 nm, to determine the background fluorescence of the control sample. After the 3 h incubation, the samples were read for fluorescence as above (T=3 h).
The Relative Fluorescence Unit values (RFU) were used to calculate the sample readings as follows: RFU(T=3h)−Control RFU(T=0)=Net RFU(T=3h)
The activity of caspase cascade activation was determined by the ratio of the net RFU value for test compound to that of control samples. The EC50 (nM) was determined by a sigmoidal dose-response calculation (Prism 3.0, GraphPad Software Inc.).

For assay [1], the target named is T1, soluble human transferrin receptor (shTR) (Homo sapiens, UniProt P02786).
T1 construct: soluble human transferrin receptor (shTR); purchased Merck Biosciences, Schwalbach, Germany
Put plainly: Biotin-GA binding to plates coated with soluble human transferrin receptor, Eu-streptavidin detection. On the procedure: FIG. 1A. […] 96-well plates were coated with soluble human transferrin receptor (shTR) (SEQ ID NO. 1) at 375 ng/well and blocked with Bovine Serum Albumin (BSA). Wells were incubated with increasing concentrations of biotin-GA in binding/washing buffer for 20 min at 30° C. Eu-streptavidin was used for the detection. Amounts of bound Eu-Streptavidin were quantified by measuring time-delayed fluorescence. Confirmed in three independent experiments.
FIG. 1C. […] Separate control wells were probed with biotinylated holo-transferrin (bio-Trn) to control for TR retention and possible denaturation over long incubation times. Independently confirmed in three experiments.
FIG. 1D. […] Binding of Biotin-GA and tritium-GA to Jurkat cells (hatched) or in-vitro TfR-binding (solid) in the presence of 1 μM GA, 50 μg/ml of apo-transferrin or 50 μg/ml of holo-transferrin is shown in this graph. […]
96-well plates were coated with soluble human transferrin receptor (shTR) (Merck Biosciences, Schwalbach, Germany) at 375 ng/well and blocked with Bovine Serum Albumin (BSA). […] Amounts of bound Eu-Streptavidin were quantified after incubation with Enhancement Solution (Perkin-Elmer, Wellesey, Mass.) by measuring time-delayed fluorescence on a Wallac Victor plate reader (Perkin-Elmer, Wellesey, Mass.) according to manufacturer's protocol. […] Kd and competition EC50 values were calculated using PRIZM software. […]

A further assay deals with Jurkat cells. Put plainly: Cell surface transferrin receptor expression by FACS. The format is cell-based. Particulars: 5 μM GA for 5 min. On the procedure: FIG. 2B. […] Jurkat cells were treated with holo-transferrin (50 μg/ml) or GA (5 μM) alone for 5 min or pretreat for 5 min with holo-transferrin followed by 5 min GA (5 μM) treatment. Cells were then stained with FITC-conjugated anti-transferrin receptor antibody for 30 minutes at 4° C. After washing, cells were analyzed on a Becton Dickinson FACS Calibur. Data is shown as mean flourescence units (mfu). Confirmed in three independent experiments.
FACS Analysis: For cell surface staining of transferrin receptor, cells were washed with PBS+1% BSA and stained with FITC-conjugated anti-transferrin receptor antibody (RDI, Flanders, N.J.) for 30 minutes at 4° C. After washing, cells were analyzed on a FACS Calibur (BD Biosciences, San Jose, Calif.) using Cellquest software.
In general terms: In flow cytometry, cells or beads pass a laser one at a time.

The test system of a further assay is T47D cells. Nature of the assay: Transferrin receptor internalization, FITC anti-transferrin receptor immunofluorescence. Type of assay: cell-based, human. Particulars: 2 μM GA for 10 or 30 min. On the procedure: FIG. 2A. […] T47D cells were treated with DMSO or 2 μM GA for 10 min (panels A and C respectively) and DMSO or 2 μM GA for 30 min (panels B and D, respectively) and further treated with FITC conjugated anti-transferrin receptor for 30 mins at 37° C. The cells were then fixed with methanol at −20° C. for 5 min, washed with PBS and mounted with Vectashield mounting medium. Representative of three independently confirmed experiments.
For detecting internalization of fluorescent transferrin receptor, T47D cells were plated on glass cover slips in a 6-well plate at a density of 3×10^5 cells per well on the day before the experiment. Cells were pretreated with 2 μM GA for 10 min at 37° C. washed with PBS, and then labeled for 30 min with 1 μg/ml FITC-labeled mouse anti-human transferrin receptor (RDI, Flanders, N.J.) at 37° C. The cells were then fixed with methanol at −20° C. for 5 min, washed with PBS and mounted with Vectashield mounting medium (Hard set with DAPI, Vector Laboratories, Inc., Burlingame, Calif.).

Sequence of Transferrin Receptors (P02786 whole entry): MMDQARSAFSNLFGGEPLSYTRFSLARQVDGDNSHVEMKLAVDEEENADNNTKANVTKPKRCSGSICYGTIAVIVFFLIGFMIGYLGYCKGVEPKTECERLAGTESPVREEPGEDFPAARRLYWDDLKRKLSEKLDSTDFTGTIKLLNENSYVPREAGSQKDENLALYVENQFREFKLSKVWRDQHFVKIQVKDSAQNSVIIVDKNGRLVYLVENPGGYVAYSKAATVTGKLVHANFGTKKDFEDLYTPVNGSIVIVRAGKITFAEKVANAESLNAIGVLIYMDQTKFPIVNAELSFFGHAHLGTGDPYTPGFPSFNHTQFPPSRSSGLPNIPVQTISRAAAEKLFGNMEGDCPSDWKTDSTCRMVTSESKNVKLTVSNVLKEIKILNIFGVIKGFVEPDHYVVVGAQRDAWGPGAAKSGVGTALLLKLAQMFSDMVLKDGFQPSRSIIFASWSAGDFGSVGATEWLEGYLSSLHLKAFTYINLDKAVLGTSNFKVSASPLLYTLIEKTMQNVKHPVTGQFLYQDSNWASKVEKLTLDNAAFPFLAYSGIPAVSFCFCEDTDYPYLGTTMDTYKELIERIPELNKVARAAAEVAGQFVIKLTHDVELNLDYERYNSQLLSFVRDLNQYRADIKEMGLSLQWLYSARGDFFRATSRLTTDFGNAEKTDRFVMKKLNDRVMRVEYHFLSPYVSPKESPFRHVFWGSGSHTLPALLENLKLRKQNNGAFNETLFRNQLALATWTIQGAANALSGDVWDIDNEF
T1 sequence (P02786 101-760 limits assumed): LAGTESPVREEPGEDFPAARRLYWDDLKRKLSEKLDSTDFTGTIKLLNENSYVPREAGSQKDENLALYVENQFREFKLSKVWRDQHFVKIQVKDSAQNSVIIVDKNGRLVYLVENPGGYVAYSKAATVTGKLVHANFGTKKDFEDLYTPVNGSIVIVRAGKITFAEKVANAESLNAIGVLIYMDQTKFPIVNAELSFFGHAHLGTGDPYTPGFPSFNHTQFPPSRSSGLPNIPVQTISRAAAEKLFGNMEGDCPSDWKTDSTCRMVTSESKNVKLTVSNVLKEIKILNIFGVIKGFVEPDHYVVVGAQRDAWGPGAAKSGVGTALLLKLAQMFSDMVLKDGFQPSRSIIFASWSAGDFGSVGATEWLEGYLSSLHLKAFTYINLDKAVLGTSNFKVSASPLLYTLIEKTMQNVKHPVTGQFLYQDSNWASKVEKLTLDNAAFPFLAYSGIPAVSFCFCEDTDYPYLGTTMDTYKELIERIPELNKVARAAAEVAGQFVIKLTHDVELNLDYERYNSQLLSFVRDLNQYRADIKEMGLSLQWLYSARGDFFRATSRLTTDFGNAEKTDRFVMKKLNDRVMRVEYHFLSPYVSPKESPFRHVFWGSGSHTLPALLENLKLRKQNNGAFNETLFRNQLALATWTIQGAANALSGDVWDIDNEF

Take `C=CCC12OCC3CC(CC4C(=O)c5ccccc5OC341)C2=O` (stereo not shown) [Example 19, 1-allyl-1,3,3a,4,5,6,6a,12a-octahydro-7,13-dioxo-1,5-methano-furo[3,4-d]xanthene]: at Transferrin Receptors, 20 µM produced 0% inhibition. Also, in the assay on T-47D, the “Caspase potency EC50 (nM)” value is “Inactive” and the “Caspase activity (Ratio)” value stood at 1.0.
With `CC(C)=CCC[C@]1(C)C=Cc2c(O)c3c(c(CC=C(C)C)c2O1)O[C@]12C(=C[C@@H]4C[C@H]1C(C)(C)O[C@@]2(C/C=C(/C)C(=O)O)C4=O)C3=O` [GA, Gambogic acid], in assay [1] (shTR 375 ng/well, increasing concentrations of biotin-GA), the “Binding to transferrin receptor in vitro (in words)” value is “binds transferrin receptor in vitro”. Besides, in assay [1] (shTR-coated wells incubated with biotin-GA, washed, then incubated with GA), the “Displacement of receptor-bound GA (in words)” value is listed as “can be displaced by active GA derivatives”. The “Transferrin receptor internalization by cell surface receptor expression (in words)” value with Jurkat cells is given as “interferes with transferrin receptor (SEQ ID NO. 1) internalization”. The “Transferrin receptor internalization (in words)” value in the assay with T47D cells is listed as “interferes with receptor internalization”.
Regarding `CC(C)=CCC12OC(C)(C)C3CC(C=C4C(=O)C=C(c5ccccc5)OC431)C2=O` (stereo not shown) [Example 31, 1-(3-Methyl-2-butenyl)-3,3-dimethyl-1,3,3a,4,5,10a-hexahydro-7,11-dioxo-9-phenyl-1,5-methano-furo[3,4-i]chromene], the inhibition – broadly, how much of the control response was suppressed – at 20 µM on Transferrin Receptors turned out to be 47%. Also, in the assay with T-47D, the “Caspase activity (Ratio)” value came out at 11.4 and the half-maximal effective concentration (EC50) (in general, the concentration that produces a half-maximal response) stood at 3.85 µM.
`C=CCC12C=C(C(=O)c3ccccc3)C3(CC=C)C(COC3(CC=C)C1=O)C2` (stereo not shown) [Example 27, 1,3,7-Triallyl-8-benzoyl-4-oxa-tricyclo[4.3.1.0^3,7]dec-8-en-2-one] returned an inhibition at 20 µM on Transferrin Receptors of 11%. Besides, in the assay on T-47D, the “Caspase potency EC50 (nM)” value was “Inactive” and the “Caspase activity (Ratio)” value worked out at 1.5.
At Transferrin Receptors, `C=CCC12CC3COC(CC=C)(C1=O)C3(CC=C)C=C2C(=O)c1ccccc1` (stereo not shown) [Example 28, 1,3,7-Triallyl-9-benzoyl-4-oxa-tricyclo[4.3.1.0^3,7]dec-8-en-2-one] yielded an inhibition at 20 µM of 8%. Besides, in the assay on T-47D, the “Caspase potency EC50 (nM)” value was “Inactive” and the “Caspase activity (Ratio)” value is 1.3.
For `CC(C)=CCC12OC(C)(C)C3CC4(Oc5ccccc5C(=O)C4=CC31)C2=O` (stereo not shown) [Example 23, 1-(3-Methyl-2-butenyl)-3,3-dimethyl-1,3,3a,4,4a,11a-hexahydro-10,12-dioxo-1,4a-methano-furo[3,4-b]xanthene], the inhibition at 20 µM at Transferrin Receptors worked out at 59%. For the same compound, in the assay with T-47D, the “Caspase activity (Ratio)” value was 14.1 and the half-maximal effective concentration (EC50) was 3.73 µM.
In turn, `CC(C)=CCC12OC(C)(C)C3CC(C=C4C(=O)c5ccccc5OC431)C2=O` (stereo not shown) [Example 22, 1-(3-Methyl-2-butenyl)-3,3-dimethyl-1,3,3a,4,5,12a-hexahydro-7,13-dioxo-1,5-methano-furo[3,4-d]xanthene] yielded an inhibition at 20 µM on Transferrin Receptors of 51%. In the assay with T-47D, the “Caspase activity (Ratio)” value was 9.9 and the EC50 worked out at 4.02 µM.
Take `C=CCC12OCC3CC(C=C4C(=O)c5ccccc5OC431)C2=O` (stereo not shown) [Example 17, 1-Allyl-1,3,3a,4,5,12a-hexahydro-7,13-dioxo-1,5-methano-furo[3,4-d]xanthene]: the inhibition at 20 µM on Transferrin Receptors was 52%. Also, in the assay on T-47D, the “Caspase activity (Ratio)” value was determined as 9.8 and the concentration for a half-maximal effect (EC50) is 8.38 µM.
`C=CCC12OCC3CC4(Oc5ccccc5C(=O)C4=CC31)C2=O` (stereo not shown) [Example 18, 1-Allyl-1,3,3a,4,4a,11a-hexahydro-10,12-dioxo-1,4a-methano-furo[3,4-b]xanthene] had an inhibition at 20 µM on Transferrin Receptors of 42%. For the same compound, in the assay with T-47D, the “Caspase activity (Ratio)” value came to 2.9 and the concentration for a half-maximal effect (EC50) was determined as 6.6 µM.
The corresponding values for `CC(C)=CCC12OC(C)(C)C3CC4(OC(c5ccccc5)=CC(=O)C4=CC31)C2=O` (stereo not shown) [Example 32, 1-(3-Methyl-2-butenyl)-3,3-dimethyl-1,3,3 a,4,4a,9a-hexahydro-8,10-dioxo-6-phenyl-1,4a-methano-furo[3,4-g]chromene] are 61%, 10.6 and 3.09 µM.
